Reference: ChEMBL document CHEMBL1125442, “Amide bond replacements incorporated into CCK-B selective "dipeptoids"” (J Med Chem, 1992)
pIC50: −log10 of the molar value. Values joined by “and” are separate entries in the source; they are usually repeats but may differ in a detail not shown here. Equal entries are not always repeated.

Tests used:
[1] = molecular target: Cholecystokinin receptor type A (Rattus norvegicus) (UniProt P30551); assay: Inhibition of [125I]CCK-8 binding to cholecystokinin type A receptor in the rat pancreas
[2] = Selectivity ratio defined as the ratio of IC50(CCK-A)/IC50(CCK-B)
[3] = molecular target: Gastrin/cholecystokinin type B receptor (Mus musculus) (UniProt P56481); assay: Inhibition of [125I]CCK-8 binding to cholecystokinin type B receptor in the mouse cerebral cortex

| SMILES | pIC50 [1] | Ratio [2] | pIC50 [3] |
| --- | --- | --- | --- |
| O=C(NC(Cc1c[nH]c2ccccc12)C(=O)NC(CO)Cc1ccccc1)OC1[C@H]2C[C@@H]3C[C@@H](C[C@H]1C3)C2 (some centres not stated) | 5.97 | 1.3 | 6.07 |
| O=C(NC(CNC(CO)Cc1ccccc1)Cc1c[nH]c2ccccc12)OC1[C@H]2C[C@@H]3C[C@@H](C[C@H]1C3)C2 (some centres not stated) | 5.90 | 0.11 | 4.94 |
| CC(Cc1c[nH]c2ccccc12)(CN(CCc1ccccc1)C(=O)CCC(=O)O)NC(=O)OC1[C@H]2C[C@@H]3C[C@@H](C[C@H]1C3)C2 (some centres not stated) | 5.97 | 0.85 | 5.90 |
| CC(Cc1c[nH]c2ccccc12)(NC(=O)OC1[C@H]2C[C@@H]3C[C@@H](C[C@H]1C3)C2)C(=O)OCCc1ccccc1 (some centres not stated) | 5.97 | 2 | 6.26 |
| CCOC(=O)CCC(=O)N(CCc1ccccc1)CC(C)(Cc1c[nH]c2ccccc12)NC(=O)OC1[C@H]2C[C@@H]3C[C@@H](C[C@H]1C3)C2 (some centres not stated) | 6.17 | 2.3 | 5.79 |
| CC(Cc1c[nH]c2ccccc12)(NC(=O)OC1[C@H]2C[C@@H]3C[C@@H](C[C@H]1C3)C2)/C(S)=N/CCc1ccccc1 (some centres not stated) |  | 1.9 |  |
| CC(Cc1c[nH]c2ccccc12)(NC(=O)OC1[C@H]2C[C@@H]3C[C@@H](C[C@H]1C3)C2)C(O)CCCc1ccccc1 (some centres not stated) [listing 1 of 3 here] | 5.58 |  | 5.71 |
| CC(Cc1c[nH]c2ccccc12)(NC(=O)OC1[C@H]2C[C@@H]3C[C@@H](C[C@H]1C3)C2)C(=S)NCCc1ccccc1 (some centres not stated) | 5.82 |  | 6.09 |
| O=C(NC(Cc1c[nH]c2ccccc12)/C(S)=N/C(CO)Cc1ccccc1)OC1[C@H]2C[C@@H]3C[C@@H](C[C@H]1C3)C2 (some centres not stated) |  | 1.2 |  |
| CN(C(=O)C(Cc1c[nH]c2ccccc12)NC(=O)OC1[C@H]2C[C@@H]3C[C@@H](C[C@H]1C3)C2)C(CO)Cc1ccccc1 (some centres not stated) | 5.97 | 0.74 | 5.84 |
| O=C(NC(Cc1c[nH]c2ccccc12)C(=S)NC(CO)Cc1ccccc1)OC1[C@H]2C[C@@H]3C[C@@H](C[C@H]1C3)C2 (some centres not stated) | 5.70 |  | 5.80 |
| CCOC(=O)CCCCCC(=O)N(CCc1ccccc1)CC(C)(Cc1c[nH]c2ccccc12)NC(=O)OC1[C@H]2C[C@@H]3C[C@@H](C[C@H]1C3)C2 (some centres not stated) | 5.45 | 4.1 | 6.06 |
| CC(Cc1c[nH]c2ccccc12)(NC(=O)OC1[C@H]2C[C@@H]3C[C@@H](C[C@H]1C3)C2)C(=O)SCCc1ccccc1 (some centres not stated) | 5.92 | 1.3 | 6.03 |
| CC(Cc1c[nH]c2ccccc12)(NC(=O)OC1[C@H]2C[C@@H]3C[C@@H](C[C@H]1C3)C2)C(O)CCCc1ccccc1 (some centres not stated) [listing 2 of 3 here] | 5.91 |  | 6.23 |
| COC(=O)CCC(=O)N[C@H](COC(=O)C(C)(Cc1c[nH]c2ccccc12)NC(=O)OC1[C@H]2C[C@@H]3C[C@@H](C[C@H]1C3)C2)c1ccccc1 (some centres not stated) | 6.45 | 4.9 | 7.15 |
| O=C(NC(Cc1c[nH]c2ccccc12)C(=O)OC(CO)Cc1ccccc1)OC1[C@H]2C[C@@H]3C[C@@H](C[C@H]1C3)C2 (some centres not stated) | 5.53 | 1.6 | 5.72 |
| CN(CCc1ccccc1)C(=O)C(C)(Cc1c[nH]c2ccccc12)NC(=O)OC1[C@H]2C[C@@H]3C[C@@H](C[C@H]1C3)C2 (some centres not stated) | 6.12 | 6.2 | 6.91 |
| CC(CCCCc1ccccc1)(Cc1c[nH]c2ccccc12)NC(=O)OC1[C@H]2C[C@@H]3C[C@@H](C[C@H]1C3)C2 (some centres not stated) | 4.71 | 2.2 | 5.06 |
| CC(Cc1c[nH]c2ccccc12)(NC(=O)OC1[C@H]2C[C@@H]3C[C@@H](C[C@H]1C3)C2)C(O)CCCc1ccccc1 (some centres not stated) [listing 3 of 3 here] |  | 1.3 and 2.1 |  |
